Laboratory results taken from patent US11713338B2, “Cyclic peptides multimers targeting α-4-β-7 integrin” (priority 2016, dated 2023).

Assays:
[1] = molecular target: T1, recombinant integrin α4β1 (Homo sapiens, UniProt P05556+P13612); assay: Integrin α4β1—VCAM-1 competition ELISA; assay type: binding; settings: for ELISA Assay Ratio β1/β7: ratio of ELISA IC50s, α4β1 over α4β7; for IC50: read-out: ELISA α4β1 Assay IC50
T1 construct: purchased R&D Systems 5397-A3-050
Summary of the method: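 Compound dilutions added to coated plate and shaken at room temperature for 2 h (300 rpm) to binding equilibrium. Wash buffer: 50 mM Tris, 100 mM NaCl, 1 mM MnCl2, 0.05% Tween. Bound Fc-tagged ligand detected with anti-human IgG Fc-HRP, 1 h at room temperature.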

[2] = molecular target: T2, recombinant integrin α4β7 (Homo sapiens, UniProt P13612+P26010, DEL724-798); assay: Integrin α4β7—MAdCAM-1 ELISA competition assay; assay type: binding; settings: read-out: ELISA α4β7 Assay IC50
T2 construct: purchased R&D Systems 5397-A3-050
T2 sequence (P13612 34-970 limits assumed): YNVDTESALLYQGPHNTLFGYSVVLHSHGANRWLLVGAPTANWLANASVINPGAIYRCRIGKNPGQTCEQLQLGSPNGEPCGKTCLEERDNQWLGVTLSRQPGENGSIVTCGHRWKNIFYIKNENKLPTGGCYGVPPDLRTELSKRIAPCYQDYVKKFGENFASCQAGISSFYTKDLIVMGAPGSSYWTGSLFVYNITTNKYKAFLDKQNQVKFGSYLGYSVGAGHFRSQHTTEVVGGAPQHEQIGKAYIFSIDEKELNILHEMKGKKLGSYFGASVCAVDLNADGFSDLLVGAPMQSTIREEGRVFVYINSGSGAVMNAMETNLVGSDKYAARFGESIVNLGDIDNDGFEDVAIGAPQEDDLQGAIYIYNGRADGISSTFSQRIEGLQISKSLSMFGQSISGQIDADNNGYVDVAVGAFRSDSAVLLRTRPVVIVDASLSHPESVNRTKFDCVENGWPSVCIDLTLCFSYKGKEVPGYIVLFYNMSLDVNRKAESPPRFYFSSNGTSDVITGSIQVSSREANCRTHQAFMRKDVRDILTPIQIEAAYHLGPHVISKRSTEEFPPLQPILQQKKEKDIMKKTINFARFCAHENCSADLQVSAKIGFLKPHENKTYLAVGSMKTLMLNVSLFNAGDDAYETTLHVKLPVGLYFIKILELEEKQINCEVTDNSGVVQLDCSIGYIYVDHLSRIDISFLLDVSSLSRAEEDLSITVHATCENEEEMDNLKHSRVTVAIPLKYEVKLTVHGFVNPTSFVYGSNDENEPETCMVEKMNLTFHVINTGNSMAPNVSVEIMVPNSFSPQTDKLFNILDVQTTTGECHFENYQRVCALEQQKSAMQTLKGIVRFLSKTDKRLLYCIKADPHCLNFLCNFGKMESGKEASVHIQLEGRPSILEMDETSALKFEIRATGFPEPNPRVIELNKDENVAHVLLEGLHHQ
T2 sequence (P26010 20-723 limits assumed): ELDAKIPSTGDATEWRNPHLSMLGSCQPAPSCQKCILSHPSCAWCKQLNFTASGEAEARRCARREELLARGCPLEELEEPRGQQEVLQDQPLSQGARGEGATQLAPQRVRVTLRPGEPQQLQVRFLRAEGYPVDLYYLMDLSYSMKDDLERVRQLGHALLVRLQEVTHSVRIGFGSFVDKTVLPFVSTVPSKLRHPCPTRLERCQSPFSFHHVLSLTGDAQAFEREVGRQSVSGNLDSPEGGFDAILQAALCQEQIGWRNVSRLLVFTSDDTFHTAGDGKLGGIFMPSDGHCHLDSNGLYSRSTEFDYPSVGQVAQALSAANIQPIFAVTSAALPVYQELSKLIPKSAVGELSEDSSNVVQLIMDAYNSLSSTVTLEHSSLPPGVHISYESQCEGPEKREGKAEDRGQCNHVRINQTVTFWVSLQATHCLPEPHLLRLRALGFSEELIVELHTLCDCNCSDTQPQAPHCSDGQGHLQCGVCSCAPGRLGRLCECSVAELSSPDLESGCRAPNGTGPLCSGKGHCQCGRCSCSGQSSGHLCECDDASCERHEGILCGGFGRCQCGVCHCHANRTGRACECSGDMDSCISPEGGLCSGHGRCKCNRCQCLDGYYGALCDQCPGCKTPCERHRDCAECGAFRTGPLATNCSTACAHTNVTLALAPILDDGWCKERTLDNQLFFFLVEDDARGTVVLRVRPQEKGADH
Protocol: Integrin α4β7—MAdCAM-1 ELISA Competition Assay
The plate was incubated at 40C overnight. […] The plate was then incubated for 1 hour at room temperature. The plate was washed three times with wash buffer (50 mM Tris, 100 mM NaCl, 1 mM MnCl2, 0.05% Tween). To each well, 50 μl of compound diluted in assay buffer was added by transfer from a compound serial dilution plate. […] The plate was incubated at room temperature with shaking (300 rpm) for 2 hours to reach binding equilibrium. […] The plate was incubated at room temperature for 1 hour under agitation.

T1 sequence (P05556 21-728 limits assumed, one chain of several): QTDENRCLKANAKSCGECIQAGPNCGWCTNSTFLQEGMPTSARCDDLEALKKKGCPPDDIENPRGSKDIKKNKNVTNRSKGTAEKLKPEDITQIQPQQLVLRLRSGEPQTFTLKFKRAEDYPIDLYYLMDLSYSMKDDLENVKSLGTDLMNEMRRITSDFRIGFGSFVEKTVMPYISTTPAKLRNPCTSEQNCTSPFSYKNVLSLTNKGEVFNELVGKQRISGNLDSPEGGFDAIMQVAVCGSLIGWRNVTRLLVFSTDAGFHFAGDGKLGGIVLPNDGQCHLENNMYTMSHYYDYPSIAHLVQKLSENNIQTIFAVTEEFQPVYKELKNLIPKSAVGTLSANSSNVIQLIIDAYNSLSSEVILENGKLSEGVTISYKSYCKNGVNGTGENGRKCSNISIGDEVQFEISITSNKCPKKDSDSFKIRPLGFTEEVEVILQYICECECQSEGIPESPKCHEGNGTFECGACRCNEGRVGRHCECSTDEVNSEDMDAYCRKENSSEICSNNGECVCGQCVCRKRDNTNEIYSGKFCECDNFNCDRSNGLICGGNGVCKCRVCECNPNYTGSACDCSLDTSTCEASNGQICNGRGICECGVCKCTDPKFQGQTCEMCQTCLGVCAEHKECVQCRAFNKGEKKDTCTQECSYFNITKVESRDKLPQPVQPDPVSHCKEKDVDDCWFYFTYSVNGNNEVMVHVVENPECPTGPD

SMILES	ELISA Assay Ratio β1/β7 [1]	IC50 [1]	IC50 [2]	ELISA Assay Ratio b1/b7 ([1]; ratio of ELISA IC50 b1 to b7)
CC(C)C[C@@H]1NC(=O)c2ccc(-c3ccc(N4CCN(C(=O)COCC(=O)N5CCN(c6ccc(-c7ccc8cc7CNC(=O)[C@@H]7CCCN7[C@H](C(=O)NC(C)(C)C)[C@H](C)NC(=O)[C@H]([C@@H](C)O)NC(=O)[C@H](CC(=O)O)NC(=O)[C@H](CC(C)C)NC8=O)cc6)CC5)CC4)cc3)c(c2)CNC(=O)[C@@H]2CCCN2[C@H](C(=O)NC(C)(C)C)[C@H](C)NC(=O)[C@H]([C@@H](C)O)NC(=O)[C@H](CC(=O)O)NC1=O [Compound 390]	0.2	2 nM	8.3 nM	
CC(C)C[C@@H]1NC(=O)c2ccc(-c3ccc(N4CCN(C(=O)CCCCCCCCCCC(=O)N5CCN(c6ccc(-c7ccc8cc7CNC(=O)[C@@H]7CCCN7[C@H](C(=O)NC(C)(C)C)[C@H](C)NC(=O)[C@H]([C@@H](C)O)NC(=O)[C@H](CC(=O)O)NC(=O)[C@H](CC(C)C)NC8=O)cc6)CC5)CC4)cc3)c(c2)CNC(=O)[C@@H]2CCCN2[C@H](C(=O)NC(C)(C)C)[C@H](C)NC(=O)[C@H]([C@@H](C)O)NC(=O)[C@H](CC(=O)O)NC1=O [Compound 392]	0.3	6.3 nM	18 nM	
CC(C)C[C@@H]1NC(=O)C[C@H](CCCCN)N(C)C(=O)[C@H](CCCCN)NC(=O)[C@@H]2CCCN2[C@H](C(=O)NC(C)(C)C)[C@H](C)NC(=O)[C@H]([C@@H](C)O)NC(=O)[C@H](CC(=O)O)NC1=O [Compound 456]				1.5
CC(C)C[C@@H]1NC(=O)c2ccc(-c3ccc(N4CCN(C(=O)[C@H]5CCC[C@H]5C(=O)N5CCN(c6ccc(-c7ccc8cc7CNC(=O)[C@@H]7CCCN7[C@H](C(=O)NC(C)(C)C)[C@H](C)NC(=O)[C@H]([C@@H](C)O)NC(=O)[C@H](CC(=O)O)NC(=O)[C@H](CC(C)C)NC8=O)cc6)CC5)CC4)cc3)c(c2)CNC(=O)[C@@H]2CCCN2[C@H](C(=O)NC(C)(C)C)[C@H](C)NC(=O)[C@H]([C@@H](C)O)NC(=O)[C@H](CC(=O)O)NC1=O [Compound 458]	0.2	1.5 nM	6.4 nM	
CC(C)C[C@@H]1NC(=O)c2ccc(-c3ccc(N4CCN(C(=O)C56CC7CC(C5)CC(C(=O)N5CCN(c8ccc(-c9ccc%10cc9CNC(=O)[C@@H]9CCCN9[C@H](C(=O)NC(C)(C)C)[C@H](C)NC(=O)[C@H]([C@@H](C)O)NC(=O)[C@H](CC(=O)O)NC(=O)[C@H](CC(C)C)NC%10=O)cc8)CC5)(C7)C6)CC4)cc3)c(c2)CNC(=O)[C@@H]2CCCN2[C@H](C(=O)NC(C)(C)C)[C@H](C)NC(=O)[C@H]([C@@H](C)O)NC(=O)[C@H](CC(=O)O)NC1=O [Compound 460]	0.1	1 nM	14 nM	
CC(C)C[C@@H]1NC(=O)c2ccc(-c3ccc(N4CCN(C(=O)C5(C(=O)N6CCN(c7ccc(-c8ccc9cc8CNC(=O)[C@@H]8CCCN8[C@H](C(=O)NC(C)(C)C)[C@H](C)NC(=O)[C@H]([C@@H](C)O)NC(=O)[C@H](CC(=O)O)NC(=O)[C@H](CC(C)C)NC9=O)cc7)CC6)Cc6ccccc6C5)CC4)cc3)c(c2)CNC(=O)[C@@H]2CCCN2[C@H](C(=O)NC(C)(C)C)[C@H](C)NC(=O)[C@H]([C@@H](C)O)NC(=O)[C@H](CC(=O)O)NC1=O [Compound 461]	0.4	7.9 nM	18 nM	
CC(C)C[C@@H]1NC(=O)c2ccc(-c3ccc(N4CCN(CCC(=O)N5CCN(c6ccc(-c7ccc8cc7CNC(=O)[C@@H]7CCCN7[C@H](C(=O)NC(C)(C)C)[C@H](C)NC(=O)[C@H]([C@@H](C)O)NC(=O)[C@H](CC(=O)O)NC(=O)[C@H](CC(C)C)NC8=O)cc6)CC5)CC4)cc3)c(c2)CNC(=O)[C@@H]2CCCN2[C@H](C(=O)NC(C)(C)C)[C@H](C)NC(=O)[C@H]([C@@H](C)O)NC(=O)[C@H](CC(=O)O)NC1=O [Compound 482]		1.5 nM		
